Patent publication US9132141B2 (priority 2012, dated 2015)

Tested on: non-adapted human Wuhan H3N2 strain
Format: in vivo
Settings: cotton rats

Compound: CCCCCC/C=C\CCCCCCCCCC(=O)N[C@H]1[C@H](OC[C@H]2O[C@H](OP(=O)(O)O)[C@H](NC(=O)CC(=O)CCCCCCCCCCC)[C@@H](OCCCCCCCCCC)[C@@H]2O)O[C@H](COC)[C@@H](OP(=O)(O)O)[C@@H]1OCC[C@@H](CCCCCCC)OC [eritoran, α-D-Glucopyranose, 3-O-decyl-2-deoxy-6-O-[2-deoxy-3-O-[(3R)-3-methoxydecyl)-6-O-methyl-2-[[(-11Z)-1-oxo-11-octadecenyl)amino]-4-O-phosphono-β-D-glucopyranosyl]-2-[(1,3-dioxotetradecyl)amino]-1-(dihydrogen phosphate)]
- lung expression of IL-6 and IL-10: decreased lung expression of IL-6 and IL-10
